Measured values: patent US10407445B2, “Hepatitis C virus inhibitors” (ENANTA PHARMACEUTICALS, INC., priority 2013, dated 2019)

Assays:
Type in all cases: cell-based
[1] = system: GT1a replicon encoding NS5A mutation Y93H; assay: Transient replication assay, GT1a replicon with NS5A mutation Y93H; conditions: Hepatitis C virus, read-out: EC50 1a Y93H
HCV GT 1a replicon = assay: HCV replicon assay, stable GT 1a replicon (Renilla luciferase); conditions: Hepatitis C virus, GT1A; HCV GT 1a replicon, 72 h; read-out: EC50 1a
Protocol: The activity of compounds was determined against HCV replicons representing genotypes (GT) 1a, 1b, 2a, and 3a. To generate stable Huh-7.5-based cell lines, HCV replicons were engineered to express the Renilla luciferase reporter (hRluc) fused to the neomycin phosphotransferase (Neo) gene. GT2a and GT3a HCV replicons were based on the JFH-1 subgenomic replicon (Kato et al. 2003 Gastroenterology, 125:1808-1817), in which the NS5A gene was replaced with that of strains J6 and S52 (GT2a and G3a, respectively). The activity of compounds against GT1a replicons encoding NS5A mutations (M28T, Q30R, L31M, Y93C, and Y93H) was also determined in a transient replication assay. The parental GT1a and GT2a replicons (pH/SG-Neo(L+I) and pSG-Neo-JFH1, respectively) were licensed from Apath LLC (Saint Louis, Mo.). The parental GT 1b replicon (pFKi389lucubineo_3_3′_ET) was licensed from ReBLikon GmbH (Germany). HCV replicons were constructed by standard molecular biology techniques described below. All replicon constructs were verified by restriction enzyme digestion and DNA sequencing.
pH/SG-Neo(L+I) was modified to add the firefly luciferase reporter gene and additional adaptive mutations by replacing the pH/SG-Neo(L+I) NS3-NS5A coding region with the corresponding sequence of pH77-S, creating pH/SG-lucubineo-H77S as described (Borawski J et al. 2009, J Virol 83: 10058-10074). Subsequently, the firefly luciferase-Neo cassette was replaced with the hRluc-Neo cassette. To create a unique cloning site, the NotI restriction site in NS5B was removed using QuickChange II XL Site-Directed Mutagenesis Kit (Agilent) and the following primers: NotI KO Fwd 5′-CTCAAACTCACTCCAATAGCTGCCGCTGGCCGGCTGGAC-3′(G→T mutation removing NotI site underlined) (SEQ. ID No. 1) and NotI KO Rev 5′-GTCCAGCGGGCCAGCGGCAGCTATTGGAGTGAGTTTGAG-3′(C→A mutation removing NotI site underlined) (SEQ. ID No. 2). The resulting vector, pH/SG-lucubineo-H775-NotIKO, was sequenced to confirm the NS5B gene. The hRluc-Neo cassette was PCR amplified from pF9 cytomegalovirus (CMV) hRluc-Neo Flexi(R) (Promega) using Accuprime Super Mix II (Invitrogen) and the following primers, which introduce restriction sites: […]
The amplification product was subcloned into pCR2.1-TOPO (Invitrogen). The resulting plasmid was digested with AscI and NotI, and the excised hRluc-Neo fragment was ligated using the Promega Rapid Ligation Kit (Promega) into pH/SG-lucubineo-H775-NotIKO digested with the same enzymes.
Stable HCV replicon cell lines were grown in complete media (Dulbecco's modified Eagle medium [DMEM], 2 mM L-glutamine, 0.1 mM essential amino acids, 1 mM sodium pyruvate, 10% heat inactivated fetal bovine serum) with the addition 500 μg/ml […] (G418). Huh7-lunet cells were maintained in the same medium without the addition of G418. Cells were routinely passaged at a dilution of 1:4 two times a week. The assay medium for both luciferase reporter HCV replicon and cytotoxicity assays used phenol red-free DMEM and lacked G418. For each stable replicon assay, a sixteen point half-log dilution series of compound was stamped (0.5 ul compound per well) into three replica 384-well plates, to which cells were added directly (4000 cells/well). For the transient replication assay, Huh7-lunet cells in ice-cold phosphate buffered saline (PBS) were electroporated (BioRad electroporator; 950 uF, 270V) with 10 ug purified in vitro transcribed HCV replicon RNA, followed by resuspension in complete media and plating (8000 cells/well) into compound stamped 384-well plates. Luciferase activity of compound-treated cells was measured relative to DMSO-treated cells after 72 h incubation using RENILLA-GLO™ Luciferase Assay (Promega). Cytotoxicity (CC50) in the GT1b replicon cell line was analyzed using CELL TITER-GLO™ (Promega). […]

[2] = system: GT1a replicon encoding NS5A mutation L31V; assay: Transient replication assay, GT1a replicon with NS5A mutation L31V; conditions: Hepatitis C virus, read-out: EC50 1a L31V

| Structure (SMILES) | EC50 [1] | EC50 (HCV GT 1a replicon) | EC50 [2] |
| --- | --- | --- | --- |
| COC(=O)N[C@H](C(=O)N1[C@H](c2nc3ccc4cc(-c5ccc(-c6cnc([C@@H]7C[C@@]8(CCCOC8)CN7C(=O)[C@H](NC(=O)OC)C7C[C@@H](C)O[C@H](C)C7)[nH]6)cc5)ccc4c3[nH]2)C[C@@H]2CCCC[C@@H]21)C(C)C (stereo in doubt) [Compound 39] | 213 nM | 0.214 nM | 4 nM |
| COC(=O)N[C@H](C(=O)N1C[C@]2(CCCOC2)C[C@H]1c1ncc(-c2ccc3cc4cc(-c5cnc([C@@H]6C[C@@H]7CCCC[C@@H]7N6C(=O)[C@@H](NC(=O)OC)C(C)C)[nH]5)ccc4cc3c2)[nH]1)C(C)C [Compound 13] | 9 nM | 0.036 nM | 0.8 nM |
| COC(=O)N[C@H](C(=O)N1C[C@]2(CCCOC2)C[C@H]1c1ncc(-c2ccc3c(c2)COc2cc(-c4cnc([C@@H]5C[C@@H]6CCCC[C@@H]6N5C(=O)[C@@H](NC(=O)OC)C(C)C)[nH]4)ccc2-3)[nH]1)C(C)C [Compound 15] | 5 nM | 0.008 nM | 0.1 nM |
| COC(=O)N[C@H](C(=O)N1C[C@]2(CCCOC2)C[C@H]1c1ncc(-c2ccc3c(ccc4cc(-c5cnc([C@@H]6C[C@@H]7CCCC[C@@H]7N6C(=O)[C@@H](NC(=O)OC)C(C)C)[nH]5)ccc43)c2)[nH]1)C(C)C [Compound 17] | 5 nM | 0.012 nM | 0.3 nM |
| COC(=O)N[C@H](C(=O)N1C[C@]2(CCCOC2)C[C@H]1c1ncc(-c2ccc(-c3ccc4c(ccc5nc([C@@H]6C[C@@H]7C[C@@H]7N6C(=O)[C@@H](NC(=O)OC)C(C)C)[nH]c54)c3)cc2)[nH]1)C(C)C [Compound 20] | 18 nM | 0.014 nM | 7 nM |
| COC(=O)N[C@H](C(=O)N1CCC[C@H]1c1nc2c([nH]1)-c1ccc(-c3ccc4c(ccc5nc([C@@H]6C[C@@]7(CCCOC7)CN6C(=O)[C@@H](NC(=O)OC)C(C)C)[nH]c54)c3)cc1OC2)C(C)C [Compound 25] | 7 nM | 0.027 nM | 0.6 nM |
| COC(=O)N[C@H](C(=O)N1C[C@]2(CCOC2)C[C@H]1c1ncc(-c2ccc(-c3ccc4c(ccc5nc([C@@H]6CCCN6C(=O)[C@@H](NC(=O)OC)C(C)C)[nH]c54)c3)cc2)[nH]1)C(C)C [Compound 26] | 42 nM | 0.025 nM | 11 nM |
| COC(=O)N[C@H](C(=O)N1C[C@@]2(CCCOC2)C[C@H]1c1ncc(-c2ccc(-c3ccc4c(ccc5nc([C@@H]6CCCN6C(=O)[C@@H](NC(=O)OC)C(C)C)[nH]c54)c3)cc2)[nH]1)C(C)C [Compound 27] | 1 nM | 0.013 nM | 0.1 nM |
| COC(=O)N[C@H](C(=O)N1C[C@]2(CCCOC2)C[C@H]1c1ncc(-c2ccc(-c3ccc4c(c3)OCc3nc([C@@H]5CCCN5C(=O)[C@@H](NC(=O)OC)C(C)C)[nH]c3-4)cc2)[nH]1)C(C)C [Compound 30] | 13 nM | 0.05 nM | 1 nM |
| COC(=O)N[C@H](C(=O)N1CCC[C@H]1c1ncc(-c2ccc(-c3ccc4c(c3)OCc3nc([C@@H]5C[C@@]6(CCCOC6)CN5C(=O)[C@@H](NC(=O)OC)C(C)C)[nH]c3-4)cc2)[nH]1)C(C)C [Compound 33] | 4 nM | 0.027 nM | 0.3 nM |
| COC(=O)N[C@H](C(=O)N1C[C@]2(CCCOC2)C[C@H]1c1nc2ccc3cc(-c4ccc5c(ccc6nc([C@@H]7C[C@@H]8COC[C@@H]8N7C(=O)[C@@H](NC(=O)OC)C(C)C)[nH]c65)c4)ccc3c2[nH]1)C(C)C [Compound 36] | 8 nM | 0.029 nM | 0.2 nM |
| COC(=O)N[C@H](C(=O)N1C[C@]2(CCCOC2)C[C@H]1c1ncc(-c2ccc(-c3ccc4c(c3)CCCc3nc([C@@H]5C[C@@H]6CCCC[C@@H]6N5C(=O)[C@@H](NC(=O)OC)C(C)C)[nH]c3-4)cc2)[nH]1)C(C)C [Compound 40] | 8 nM | 0.011 nM | 1 nM |
| COC(=O)N[C@H](C(=O)N1C[C@]2(CCCOC2)C[C@H]1c1ncc(-c2ccc(-c3ccc4c(c3)OCc3nc([C@@H]5C[C@@H]6CCCC[C@@H]6N5C(=O)[C@@H](NC(=O)OC)C(C)C)[nH]c3-4)cc2)[nH]1)C(C)C [Compound 42] | 16 nM | 0.006 nM | 0.2 nM |
| COC(=O)N[C@H](C(=O)N1C[C@@]2(CCOC2)C[C@H]1c1ncc(-c2ccc(-c3ccc4c(ccc5nc([C@@H]6C[C@]7(CCOC7)CN6C(=O)[C@@H](NC(=O)OC)C(C)C)[nH]c54)c3)cc2)[nH]1)C(C)C [Compound 49] | 12 nM | 0.01 nM | 5 nM |
| COC(=O)N[C@H](C(=O)N1C[C@@]2(CCOC2)C[C@H]1c1ncc(-c2ccc(-c3ccc4c(ccc5nc([C@@H]6CCCN6C(=O)[C@@H](NC(=O)OC)C(C)C)[nH]c54)c3)cc2)[nH]1)C(C)C [Compound 50] | 7 nM | 0.014 nM | 1 nM |
| COC(=O)N[C@H](C(=O)N1C[C@]2(CCCCO2)C[C@H]1c1nc(-c2ccc(-c3ccc4c(ccc5nc([C@@H]6CCCN6C(=O)[C@@H](NC(=O)OC)C(C)C)[nH]c54)c3)cc2)c[nH]1)C(C)C [Example 2] | 9 nM | 0.012 nM | 0.3 nM |
| COC(=O)N[C@H](C(=O)N1C[C@@]2(CCCCO2)C[C@H]1c1nc(-c2ccc(-c3ccc4c(ccc5nc([C@@H]6CCCN6C(=O)[C@@H](NC(=O)OC)C(C)C)[nH]c54)c3)cc2)c[nH]1)C(C)C [Example 3] | 6 nM | 0.146 nM | 44 nM |
| COC(=O)N[C@H](C(=O)N1C[C@]2(CCCO2)C[C@H]1c1ncc(-c2ccc(-c3ccc4c(ccc5nc([C@@H]6CCCN6C(=O)[C@@H](NC(=O)OC)C(C)C)[nH]c54)c3)cc2)[nH]1)C(C)C [Example 81] | 15 nM | 0.015 nM | 0.4 nM |
| COC(=O)N[C@H](C(=O)N1C[C@@]2(CCCO2)C[C@H]1c1ncc(-c2ccc(-c3ccc4c(ccc5nc([C@@H]6CCCN6C(=O)[C@@H](NC(=O)OC)C(C)C)[nH]c54)c3)cc2)[nH]1)C(C)C [Example 82] | 5 nM | 0.059 nM | 46 nM |
| COC(=O)N[C@H](C(=O)N1CC2(CCOCC2)C[C@H]1c1ncc(-c2ccc(-c3ccc4c(ccc5nc([C@@H]6CCCN6C(=O)[C@@H](NC(=O)OC)C(C)C)[nH]c54)c3)cc2)[nH]1)C(C)C [Example 83] | 26 nM | 0.029 nM | 6 nM |
| COC(=O)N[C@H](C(=O)N1CCC[C@H]1c1nc2ccc3cc(-c4ccc5c(ccc6nc([C@@H]7CCCN7C(=O)[C@@H](NC(=O)OC)C(C)C)[nH]c65)c4)ccc3c2[nH]1)C(C)C [Example 101] | 25 nM | 0.011 nM | 6 nM |
| COC(=O)N[C@H](C(=O)N1CCC[C@H]1c1ncc(-c2ccc(-c3ccc4c(ccc5nc([C@@H]6CCCN6C(=O)[C@@H](NC(=O)OC)C(C)C)[nH]c54)c3)cc2)[nH]1)C(C)C [Example 102] | 22 nM | 0.015 nM | 8 nM |
| COC(=O)N[C@H](C(=O)N1CCC[C@H]1c1nc2ccc(C#Cc3ccc4c(ccc5nc([C@@H]6CCCN6C(=O)[C@@H](NC(=O)OC)C(C)C)[nH]c54)c3)cc2[nH]1)C(C)C [Example 103] | 112 nM | 0.012 nM | 29 nM |
